Measurements as given in patent US20250213474A1, “COMPOSITIONS AND METHODS FOR METAL CONTAINING FORMULATIONS CAPABLE OF MODULATING IMMUNE RESPONSE” (The Regents of the University of Michigan, priority 2021, published 2025).

How the values were obtained:
[1] = system: cGAS-STING-Type I IFN pathway; assay: Inhibition of DNA/lipofectamine-induced IFN-I response in THP 1 dual-KI-hSTING WT(R232) reporter cells; type: cell-based, human; settings: DNA/lipofectamine complex challenging, ISRE induced luminescence
Description: (§1) FIGS. 18A-18F: Chelating metal ions to inhibit cGAS-STING-Type I IFN pathway. (FIG. 18A) Molecular structure of representative chelators that could inhibit cGAS-STING-Type I IFN pathway. (FIGS. 18B-18C) Dose-inhibition curves of the IFN-I response (FIG. 18B) and NF-kB inflammation response (FIG. 18C) by the indicated compounds in DNA/lipofectamine 2000 (ThermoFisher, 11668027) treated THP 1 dual-KI-hSTING^WT(R232) reporter cells (Invivogen, thpd-r232). (FIG. 18D) Cellular viability of FIGS. 18B-18C. (FIG. 18E) Dose-inhibition curves of the IFN-I response by the indicated compounds in DNA/lipofectamine 2000 (ThermoFisher, 11668027) treated THP 1-ISG hSTING^HAQ reporter cells (Invivogen, thp-isg). […]
(§2) Given the interesting function of metal ions on modulating innate immune response in our finding, we further evaluated whether chelating metal ions could inhibit the according innate immune pathways, which may be used to treat autoimmune diseases, such as Systemic lupus erythematosus, Aicardi-Goutieres syndrome, Acute pancreatitis Age-dependent macular degeneration, Alcoholic liver disease, Liver fibrosis, Metastasis, Myocardial infarction, Nonalcoholic steatohepatitis (NASH), Parkinson's disease, Polyarthritis/fetal and neonatal anemia, Sepsis, inflammatory bowel disease, multiple sclerosis, etc. […] By a ISRE induced luminescence, we could read the degree of inhibition. […]

[2] = system: THP 1 dual-KI-hSTING^WT(R232) reporter cells; assay: Cellular viability of chelator-treated THP 1 dual-KI-hSTING WT(R232) reporter cells; type: cell-based, human
Description: as §1, §2

[3] = system: CT26 colon cancer cells; assay: CT26 tumor model, intratumoral cdAMP(ps)2 formulations; type: in vivo, Balb/c mice
Experimental: When tumor size reach ˜60 mm^3, 2 doses of 25 ug/dose cdAMP(ps)2 were administrated intra-tumorally on days 10 and 15. To evaluate antigen-specific immune responses, PBMCs were collected for tetramer staining on day 17 and ELISPOT analysis with AH1 antigen peptides on day 22. […] Although CDN-Zn seemed to better inhibit tumor growth, compared with CDN and CDNs@CaP/PEI-PEG, there was no statistical difference among them. For the survival of mice after treatment, median survival time for untreated, CDN, CDN-Zn and CDNs@CaP/PEI-PEG group was 23 days, 42 days, 64 days and unreached, respectively (FIG. 4B).
All animals were cared for following federal, state, and local guidelines. All work performed on animals was in accordance with and approved by the University Committee on Use and Care of Animals (UCUCA) at University of Michigan, Ann Arbor. Female Balb/c mice of age 6-8 weeks (Jackson Laboratories) were inoculated with 1×10^5 CT26 colon cancer cells. When tumor size achieved ˜100 mm^3, 2 doses of 25 ug cdAMP(ps)2 in different formulations were administrated via intra-tumoral route on day 10 and day 15. Tumor size and survival were monitored every 2 or 3 days. Tumor size was calculated based on equation: volume=length×width^2×0.5. Animals were euthanized when the tumor reached 1.5 cm in diameter or when animals became moribund with severe weight loss or ulceration. At day 17, the percentages of tumor antigen-specific CD8α+ T cells among PBMC were analyzed using the tetramer staining assay as described previously with peptide-MHC tetramer ([…] AH1) (the NIH Tetramer Core Facility, Atlanta, GA). On day 22, ELISPOT assay was performed with PBMC from the treated mice as described previously.
All animals were cared for following federal, state, and local guidelines. All work performed on animals was in accordance with and approved by the University Committee on Use and Care of Animals (UCUCA) at University of Michigan, Ann Arbor. Female Balb/c mice of age 6-8 weeks (Jackson Laboratories) were inoculated with 1×10^5 CT26 colon cancer cells. When tumor size achieved ˜50 mm^3, indicated drugs or formulations were administrated via the indicated route. Tumor size and survival were monitored every 2 or 3 days. Tumor size was calculated based on equation: volume=length×width^2×0.5. Animals were euthanized when the tumor reached 1.5 cm in diameter or when animals became moribund with severe weight loss or un-healing ulceration. At day 17, the percentages of tumor antigen-specific CD8α+ T cells among PBMC were analyzed using the tetramer staining assay as described previously with peptide-MHC tetramer ([…] AH1) (the NIH Tetramer Core Facility, Atlanta, GA). […]
We also evaluated a subset of the formulations mentioned above in tumor-bearing mice. […]

[4] = 2 doses of 25 ug/dose cdAMP(ps)2 intratumorally on days 10 and 15

Molecule | IC50 of DNA-induced Type I IFN response [1] | tolerability in in-vitro assay (cellular viability) [2] | average tumor growth compared with the untreated group [3, 4] | median survival time [3, 4] | AH1 antigen-specific T cell response (ELISPOT) ([3]; day 22, seven days after the 2nd dose) | complete tumor regression ([3]; individual tumor growth curves, 5 mice per group)
O=C1O[C@H]2[C@@H]3OC(=O)c4cc(O)c(O)c(O)c4-c4c(O)c(O)c5oc(=O)c6c(c(O)c(O)c7oc(=O)c4c5c76)-c4c(cc(O)c(O)c4O)C(=O)OC[C@H]3OC(O)[C@@H]2OC(=O)c2cc(O)c(O)c(O)c2-c2c1cc(O)c(O)c2O (mixture of isomers) [Punicalagin] | as low as nanomolar level | well-tolerated | – | – | – | –
O=C(OC[C@H]1O[C@@H](OC(=O)c2cc(O)c(O)c(OC(=O)c3cc(O)c(O)c(O)c3)c2)[C@H](OC(=O)c2cc(O)c(O)c(OC(=O)c3cc(O)c(O)c(O)c3)c2)[C@@H](OC(=O)c2cc(O)c(O)c(OC(=O)c3cc(O)c(O)c(O)c3)c2)[C@@H]1OC(=O)c1cc(O)c(O)c(OC(=O)c2cc(O)c(O)c(O)c2)c1)c1cc(O)c(O)c(OC(=O)c2cc(O)c(O)c(O)c2)c1 [tannin acid, Tannic acid] | as low as nanomolar level | well-tolerated | – | – | – | –
cdAMP(ps)2 [free CDN] | – | – | greatly delayed | 42 days | significant AH1 antigen-specific T cell response | 2 out of 5
